# Experiments:
# TGFbeta = TGFbeta in murine calvarial organ culture (FIG. 2C); assay type: cell-based, mouse
# Description: (§1) We have previously reported AC-100 treatment increases PGE2, TGFbeta and Fibronectin levels in the conditioned media from the murine calvarial organ culture. Histological evaluation of the bones indicated AC-100 increased the amount of new bone formation and numbers of osteoblasts.
# (§2) To quantitatively measure the increase in FGF2 in AC-100 treated bones, lysates were harvested over a comprehensive timecourse (30 min, 1 hr, 2 hr, 6 hr, 24 hr, 48 hr, 72 hr, day 4, day 5) and analysed for FGF2 and other bone anabolic factors using ELISA. […] Consistent with our previous findings AC-100 increased PGE2 in the conditioned media and TGFbeta and Fibronectin in both the conditioned media and bone lysate.
# (§3) In addition, this response roughly correlated with expression of PGE-2 following AC-100 treatment (2B), TGF-β (2C) and Fibronectin (2D). Increases in PGE2 in the same cultures were observed from […].
# BMP2 [1] = test: Synergy with BMP2 in vitro; assay type: cell-based; conditions: combination with BMP2, in vitro
# Text: (§4) BMP2, a potent osteogenic agent is also a strong stimulator of angiognenesis.
# FGF-2 = FGF-2 production in mouse calvaria organ cultures (FIG. 1); assay type: cell-based; conditions: tissue lysates and conditioned media
# Description: AC-100 at both 1 and 10 uM concentrations increased the production of FGF-2 in mouse calvaria organ cultures. Increases were found in both tissue lysates and in the conditioned media of cultures treated with AC-100.
# Fibronectin = Fibronectin in murine calvarial organ culture (FIG. 2D); assay type: cell-based, mouse
# Description: as §1, §2, §3
# PGE2 = PGE2 in murine calvarial organ culture (FIG. 2B); assay type: cell-based, mouse
# Description: as §1, §2, §3
# BMP2 [2] = test: Synergy with BMP2 in vivo, ossicle formation
# Text: as §4
# [3] = system: murine calvarial organ culture; test: Histological evaluation of bones from murine calvarial organ culture; assay type: cell-based, mouse; conditions: histological evaluation of the bones
# Text: as §1
# bone healing = test: Bone healing in diverse animal models; assay type: in vivo
# Text: Angiogenesis is a crucial part of bone healing.
# FGF2 [4] = test: ELISA timecourse of FGF2 in calvaria organ culture lysates and conditioned media (FIG. 2A); assay type: cell-based, mouse
# Description: as §2, §3
# FGF2 [5] = test: Angiogenesis antibody array (TranSignal Mouse Angiogenesis Antibody Array) of lysates from AC-100 treated calvariae; assay type: cell-based; conditions: calvaria lysates
# Text: To investigate whether AC-100 modulates bone anabolic factors that are sequestered within the bone matrix we have analysed lysates from AC-100 treated calvariae.
# Initial experiments analysed the lysates using an angiogenesis antibody array (TranSignal Mouse Angiogenesis Antibody Array, Panomics).
# [6] = conditioned media, murine calvarial organ culture, previously reported
sequence,measurement,setting,value
TDLQERGDNDISPFSGDGQPFKD [AC-100],TGFbeta in bone lysate,"TGFbeta; ELISA, bone lysate",increased
same,TGFbeta in conditioned media,"TGFbeta; ELISA, conditioned media",increased
same,TGFbeta levels,TGFbeta; [6],increases
same,activity with BMP2 in vitro,BMP2 [1],synergistic activities
same,production of FGF-2,FGF-2; AC-100 1 uM,increased
same,production of FGF-2,FGF-2; AC-100 10 uM,increased
same,Fibronectin in bone lysate,"Fibronectin; ELISA, bone lysate",increased
same,Fibronectin in conditioned media,"Fibronectin; ELISA, conditioned media",increased
same,Fibronectin levels,Fibronectin; [6],increases
same,PGE2 in conditioned media,"PGE2; ELISA, conditioned media",increased
same,PGE2 levels,PGE2; [6],increases
same,PGE2 over time (FIG. 2B),"PGE2; same cultures, days 2-7",Increases
same,osteons and blood vessels in ossicles,BMP2 [2]; BMP2 and AC-100 co-treatment,contain mature osteons with new blood vessels
same,structure of ossicles formed,BMP2 [2]; BMP2 and AC-100 co-treatment versus BMP2 alone,more mature structure
same,activity with BMP2 in vivo,"BMP2 [2]; combination with BMP2, in vivo",synergistic activities
same,amount of new bone formation,[3],increased
same,numbers of osteoblasts,[3],increased
same,healing,bone healing,earlier healing
same,new bone formed,bone healing,increased amount and better quality of new bone
same,FGF2 in conditioned media,"FGF2 [4]; ELISA, conditioned media",not detectable
same,FGF2 in bone lysates,"FGF2 [4]; ELISA, lysates, 30 min through day 5",potent increase
same,production of FGF-2 over time (FIG. 2A),FGF2 [4]; approximately 1 hr to 5 days,increased
same,FGF2 signal at 2 hr,FGF2 [5]; 2 hr,increased
same,FGF2 signal 24 hr through day 3,FGF2 [5]; 24 hr through day 3,the same as the control bones
same,FGF2 signal at day 5,"FGF2 [5]; day 5, control signal significantly reduced",still strong
same,"FGF2 signal, overall course",FGF2 [5]; versus control bones,earlier and prolonged increase

# Source: patent US20080145412A1, “METHOD OF PROMOTING ANGIOGENESIS” (Acologix, Inc., priority 2006, published 2008)
